From article PMC2939254 (Neuroscience, 2010)
Read-outs that look alike come from different tables or passages of the source.

What was measured:
[1] = system: NR1a/NR2A NMDAR expressed in HEK293 cells; format: cell-based, rat; details: pH 7.35
[2] = system: NR1a/NR2B NMDAR expressed in HEK293 cells; format: cell-based, rat; details: pH 7.35
[3] = system: NR1b/NR2A NMDAR expressed in HEK293 cells; format: cell-based, rat; details: pH 7.35
[4] = system: NR1b/NR2B NMDAR expressed in HEK293 cells; format: cell-based, rat; details: pH 7.35
[5] = system: NR2B-containing NMDAR; format: cell-based, rat
[6] = system: NR2A-containing NMDAR complexes; format: cell-based, rat
[7] = system: NR1a/NR2A NMDAR expressed in HEK293 cells; details: cited from earlier work
[8] = system: NR1a/NR2B NMDAR expressed in HEK293 cells; details: cited from earlier work
[9] = system: NR1b/NR2A NMDAR expressed in HEK293 cells; details: cited from earlier work
[10] = system: NR1b/NR2B NMDAR expressed in HEK293 cells; details: cited from earlier work

Substance	% maximal inhibition, 1a/2A [1]	% maximal inhibition, 1a/2B [2]	% maximal inhibition, 1b/2A [3]	% maximal inhibition, 1b/2B [4]	maximal inhibition of NR2B-containing NMDAR [5]	inhibition of NR2A-containing NMDAR complexes [6]	% maximal inhibition, 1a/2A [7]	% maximal inhibition, 1a/2B [8]	% maximal inhibition, 1b/2A [9]	% maximal inhibition, 1b/2B [10]
GEγγLAKNA AγLARγNI(NH2) [con-R′ [V5L/ΔA10]]	0%	69 ± 4%	0%	71 ± 3%						
GEγγLQANQγLIRγKSN(NH2) [con-G[γ7A]]	0%	90 ± 4%	0%	95 ± 3%						
GEγγLQKMLγNLRγAEVKKNA(NH2) [con-T[Y5L]]	80 ± 6%	85 ± 3%	86 ± 7%	90 ± 6%						
GEγγLQKNQγLIRγKSN(NH2) [con-G[γ7K]]	0%	82 ± 5%	0%	94 ±2%						
GEγγLQγNQγNLRγAEVKKNA(NH2) [con-G/T]	0%	80 ± 5%	0%	86 ± 4%	> 80%	no inhibition				
GEγγVAAMAAγLARγNI(NH2) [con-R′ [K7A]]	93 ± 3%	91 ± 3%	93 ± 4%	95 ± 2%						
GEγγVAKAAAγLARγNI(NH2) [con-R′ [M8A]]	0%	85 ± 3%	0%	88 ± 4%						
GEγγVAKMA AγLARγNI(NH2) [con-R′ [ΔA10]]	0%	55 ± 6%	0%	65 ± 5%						
GEγγVAKNAAγLARγNI(NH2) [con-R′ [M8N]]	45 ± 6%	53 ± 5%	60 ± 7%	66 ± 5%						
GEγγVQKMAAγLARγNI(NH2) [con-R′ [A6Q]]	50 ± 7%	84 ± 5%	72 ± 6%	90 ± 4%						
GEγγVQKMQAγLARγNI(NH2) [con-R′ [A6Q/A9Q]]	0%	70 ± 6%	25 ± 5%	79 ± 5%						
GEγγYAKNA AγLARγNI(NH2) [con-R′ [V5Y/ΔA10]]	82 ± 6%	87 ± 5%	84 ± 4%	90 ± 3%						
GEγγYQAMLγNLRγAEVKKNA(NH2) [con-T[K7A]]	93 ± 2%	85 ± 5%	91 ± 3%	94 ± 2%						
GEγγYQKALAγNLRγAEVKKNA(NH2) [con-T[M8A/+A10]]	0%	63 ± 4%	0%	67 ± 5%						
GEγγYQKALγNLRγAEVKKNA(NH2) [con-T[M8A]]							0%	73 ± 8%	0%	81 ± 5%
GEγγYQKGLγNLRγAEVKKNA(NH2) [con-T[M8G]]	0%	80 ± 5%	0%	84 ± 4%						
GEγγYQKMAγNLRγAEVKKNA(NH2) [con-T[L9A]]	93 ± 2%	92 ± 5%	91 ± 3%	95 ± 2%						
GEγγYQKNLγNLRγAEVKKNA(NH2) [con-T[M8N]]							48 ± 6%	82 ± 5%	56 ± 7%	90 ± 4%
GEγγYQγMLγNLRγAEVKKNA(NH2) [con-T[K7γ]]	78 ± 4%	86 ± 5%	82 ± 6%	90 ± 2%						
